Experimental findings from paper PMC3762611 (International Journal of Tryptophan Research : IJTR, 2013) are described below.

This test has as its target indoleamine 2,3-dioxygenase 1 (IDO1) (Homo sapiens, UniProt P14902). The test is classed as biochemical.

Sequence of indoleamine 2,3-dioxygenase 1 (IDO1) (P14902 whole entry): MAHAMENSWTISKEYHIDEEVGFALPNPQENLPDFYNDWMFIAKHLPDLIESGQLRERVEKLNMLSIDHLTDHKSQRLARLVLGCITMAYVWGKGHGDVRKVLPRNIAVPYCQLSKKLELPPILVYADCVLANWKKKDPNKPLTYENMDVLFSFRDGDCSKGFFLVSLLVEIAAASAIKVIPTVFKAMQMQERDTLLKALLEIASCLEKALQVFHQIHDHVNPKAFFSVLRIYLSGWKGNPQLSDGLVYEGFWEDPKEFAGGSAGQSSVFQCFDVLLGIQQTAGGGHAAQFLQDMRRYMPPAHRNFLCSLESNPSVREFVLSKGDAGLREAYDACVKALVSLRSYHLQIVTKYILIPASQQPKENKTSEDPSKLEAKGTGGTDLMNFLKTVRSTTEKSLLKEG

With `CC1(C)CCC2=C(O1)c1ccccc1C(=O)C2=O` [β-lapachone, 3,4-dihydro-2,2-dimethyl-2H-naphthol[1,2-b]pyran-5,6-dione], the affinity corresponds to a Ki of 450 nM.
